Measurements reported in PMC11945486, “TAS1R2/TAS1R3 Single-Nucleotide Polymorphisms Affect Sweet Taste Receptor Activation by Sweeteners: The SWEET Project” (Nutrients, 2025).
No end group written: not given here.

T1: human TAS1R2-K689Q/TAS1R3-WT (Homo sapiens, UniProt Q7RTX0+Q8TE23, K689Q)
T1 construct: expressed in transfected cells; host or cells: HEK293T-Gα16gust44
T1 sequence (Q8TE23 20-839 K689Q): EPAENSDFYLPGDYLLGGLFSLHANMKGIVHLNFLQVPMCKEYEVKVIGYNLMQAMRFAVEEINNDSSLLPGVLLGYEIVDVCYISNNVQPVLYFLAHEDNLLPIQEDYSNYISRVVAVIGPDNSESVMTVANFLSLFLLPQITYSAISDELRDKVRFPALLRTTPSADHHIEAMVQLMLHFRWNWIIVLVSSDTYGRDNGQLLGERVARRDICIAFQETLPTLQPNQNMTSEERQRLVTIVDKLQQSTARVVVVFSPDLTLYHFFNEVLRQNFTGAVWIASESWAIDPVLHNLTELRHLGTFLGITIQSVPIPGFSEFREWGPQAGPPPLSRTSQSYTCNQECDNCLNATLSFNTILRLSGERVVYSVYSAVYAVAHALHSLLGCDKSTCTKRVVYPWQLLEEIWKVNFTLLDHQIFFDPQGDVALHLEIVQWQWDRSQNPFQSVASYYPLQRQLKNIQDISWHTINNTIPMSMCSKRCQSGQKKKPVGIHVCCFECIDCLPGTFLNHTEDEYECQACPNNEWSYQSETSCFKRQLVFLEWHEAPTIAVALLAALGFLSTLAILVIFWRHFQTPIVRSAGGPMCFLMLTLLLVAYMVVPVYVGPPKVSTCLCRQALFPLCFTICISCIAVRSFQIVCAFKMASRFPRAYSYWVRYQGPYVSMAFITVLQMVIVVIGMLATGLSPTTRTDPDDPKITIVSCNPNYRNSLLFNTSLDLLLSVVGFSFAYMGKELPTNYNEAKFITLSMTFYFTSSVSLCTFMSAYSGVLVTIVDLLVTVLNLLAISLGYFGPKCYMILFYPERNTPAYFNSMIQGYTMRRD
T1 sequence (Q7RTX0 21-852): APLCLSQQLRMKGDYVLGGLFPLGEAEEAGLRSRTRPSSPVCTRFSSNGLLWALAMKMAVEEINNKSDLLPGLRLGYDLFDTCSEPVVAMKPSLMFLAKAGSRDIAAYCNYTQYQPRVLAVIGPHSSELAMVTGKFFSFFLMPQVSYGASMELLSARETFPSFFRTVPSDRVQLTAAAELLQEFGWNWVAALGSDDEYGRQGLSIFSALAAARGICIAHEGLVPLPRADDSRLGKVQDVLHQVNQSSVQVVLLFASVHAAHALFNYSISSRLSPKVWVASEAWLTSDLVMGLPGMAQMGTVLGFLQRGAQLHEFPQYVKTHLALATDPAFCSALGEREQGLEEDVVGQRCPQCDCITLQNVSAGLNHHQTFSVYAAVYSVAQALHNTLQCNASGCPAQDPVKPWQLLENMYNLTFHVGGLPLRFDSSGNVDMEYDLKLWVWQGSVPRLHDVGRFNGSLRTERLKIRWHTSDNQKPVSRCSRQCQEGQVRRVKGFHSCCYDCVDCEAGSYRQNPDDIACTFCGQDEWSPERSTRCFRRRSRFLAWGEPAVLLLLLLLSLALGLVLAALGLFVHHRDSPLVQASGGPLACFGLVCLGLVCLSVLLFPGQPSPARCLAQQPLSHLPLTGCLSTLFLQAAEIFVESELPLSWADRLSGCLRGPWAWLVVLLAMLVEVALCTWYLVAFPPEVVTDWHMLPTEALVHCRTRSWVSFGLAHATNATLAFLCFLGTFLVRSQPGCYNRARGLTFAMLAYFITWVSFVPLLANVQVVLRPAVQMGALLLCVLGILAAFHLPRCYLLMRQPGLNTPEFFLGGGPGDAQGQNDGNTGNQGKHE

B1: thaumatin (protein)
chain: ATFEIVNRCSYTVWAAASKGDAALDAGGRQLNSGESWTINVEPGTKGGKIWARTDCYFDDSGSGICKTGDCGGLLRCKRFGRPPTTLAEFSLNQYGKDYIDISNIKGFNVPMDFSPTTRGCRGVRCAADIVGQCPAKLKAPGGGCNDACTVFQTSEYCCTTGKCGPTEYSRFFKRLCPDAFSYVLDKPTTVTCPGSSNYRVTFCPTA
modifications: Eight disulfides
notes: sweet-tasting plant protein, E957

Biological target: T1, human TAS1R2-K689Q/TAS1R3-WT
Test: Calcium mobilisation assay, TAS1R2 variant K689Q with TAS1R3-WT
Format: cell-based
Settings: "-": no activation; for EC50: "nd": not determined; for Max ΔF/F0: maximal signal amplitude
Description: The coding sequences for TAS1R2 and TAS1R3 were commercially synthesised, and the human codon was optimised for expression in human cells. The coding sequences of human TAS1R2 and TAS1R3 were subcloned and inserted into the mammalian expression vectors pcDNA6/myc-HisA and pcDNA4/myc-HisA (Invitrogen; Thermo Fisher Scientific; Illkirch, France) between the EcoRI and NotI restriction sites, generating the plasmids pcDNA6-TAS1R2 and pcDNA4-TAS1R3, respectively. To increase protein expression in mammalian cells, an upstream start codon was used, which was a sequence called MAX, corresponding to the QBI SP163 element also described in pcDNA4-HisMax (Invitrogen; Thermo Fisher Scientific; Illkirch, France). To measure the expression level of the receptor by immunohistochemistry, we used the FLAG sequence ([…]) in the C-terminal position, which encodes the FLAG tag epitope. SNP variants of TAS1R2 and TAS1R3 were constructed based on […], respectively, using site-directed mutagenesis (Genewiz; Leipzig, Germany).
The HEK293T cells were kindly provided by Jay P. Slack (Givaudan Flavors Corporation; Cincinnati, OH, USA). HEK293T cells stably transfected with Gα16gust44 [43, 67] were seeded in poly-D-lysine-coated clear-bottom black 96-well plates (0.35 × 10^5 cells/well) in high-glucose DMEM supplemented with 2 mM GlutaMAX, 10% dialysed foetal bovine serum with penicillin/streptomycin and G418 (400 μg/mL) at 37 °C and 6.3% CO2 in a humidified atmosphere as previously reported. […] As a negative control, HEK293T cells were mock-transfected with the empty expression vector. After a further 24 h of incubation, the HEK293T cells were washed with C1 buffer (130 mM NaCl, 5 mM KCl, 10 mM HEPES pH 7.4 and 2 mM CaCl2). The 96-well plates containing the cells were then stimulated with sweet-tasting compounds. […] Different concentration ranges were tested depending on the sweet compound injected. The Ca^2+ changes were expressed as fractional changes in fluorescent light intensity: ΔF/F = (F − F0)/F0, where F was the fluorescent light intensity at each point, and F0 was the value of emitted fluorescent light prior to stimulus application. To calculate dose–response relationships, the changes in fluorescence upon stimulus application were averaged, mock-subtracted and baseline-corrected. The dose–response data obtained were adjusted using a 4-parameter logistic equation. The half-maximal effective concentrations (EC50 values) and maximal signal amplitudes were calculated using SigmaPlot software (version 15.0) (Systat Software; San Jose, CA, USA).
For in vitro calcium mobilisation assay performed on hTAS1R2-SNPs, hTAS1R3-SNPs and mTAS1R3-I60T, 6 to 7 concentrations were tested for each sweet compound, plus buffer alone. All concentration–receptor combinations were measured in duplicate, and each experiment was repeated at least 4 times (8 wells/concentration). Results were expressed for each concentration as ΔF/F mean ± SEM and represented as dose–response curves.

Molecule | R1 = Variant EC50/WT EC50 | EC50 | Max ΔF/F0
C=C(C)[C@@H]1CC=C(/C=N/O)CC1 [Perillartine, perillartine] | 7.6 | 132 ± 16.9 µM | 1.36 ± 0.01
O=S(=O)(O)NC1CCCCC1 [Cyclamate, cyclamate] | – | 5010 ± 220 µM | –
C=C1C[C@@]23CC[C@H]4[C@@](C)(CCC[C@@]4(C)C(=O)O[C@@H]4O[C@H](CO)[C@@H](O)[C@H](O[C@@H]5O[C@H](CO)[C@@H](O)[C@H](O)[C@H]5O)[C@H]4O[C@@H]4O[C@H](CO)[C@@H](O)[C@H](O)[C@H]4O)[C@@H]2CC[C@]1(O[C@@H]1O[C@H](CO)[C@@H](O)[C@H](O[C@@H]2O[C@H](CO)[C@@H](O)[C@H](O)[C@H]2O)[C@H]1O[C@@H]1O[C@H](CO)[C@@H](O)[C@H](O)[C@H]1O)C3 [Rebaudioside M, rebaudioside M] | 4.5 | 75.8 ± 2.3 µM | 0.36 ± 0.01
OC[C@H]1O[C@H](O[C@]2(CCl)O[C@H](CCl)[C@@H](O)[C@@H]2O)[C@H](O)[C@@H](O)[C@H]1Cl [Sucralose] | 3.4 | 307 µM | 0.08 ± 0.01
CC1=CC(=O)NS(=O)(=O)O1 [Acesulfame K, acesulfame K] | 4.3 | – | 0.02
brazzein (QDKCKKVYENYPVSKCQLANQCNYDCKLDKHARSGECFYDEKRNLQCICDYCEY; ends and bridges not checked; cysteine pairing not given here; UniProt P56552 1-54, looked up) [sweet-tasting protein obtained by recombinant production using the yeast Pichia pastoris] | 5.7 | – | 0.64 ± 0.03
thaumatin | 4.4 | – | 0.87 ± 0.09
COC(=O)[C@H](Cc1ccccc1)NC(=O)[C@H](CC(=O)O)NCCC(C)(C)C [Neotame] | 4.3 | 3.58 ± 0.46 µM | 0.12 ± 0.01
C[C@H](CC[C@@H](O[C@@H]1O[C@H](CO[C@@H]2O[C@H](CO)[C@@H](O)[C@H](O)[C@H]2O)[C@@H](O)[C@H](O)[C@H]1O[C@@H]1O[C@H](CO)[C@@H](O)[C@H](O)[C@H]1O)C(C)(C)O)[C@H]1CC[C@@]2(C)[C@@H]3CC=C4[C@@H](CC[C@H](O[C@@H]5O[C@H](CO[C@@H]6O[C@H](CO)[C@@H](O)[C@H](O)[C@H]6O)[C@@H](O)[C@H](O)[C@H]5O)C4(C)C)[C@]3(C)[C@H](O)C[C@]12C [Mogroside V, mogroside V] | 3.3 | 57.9 ± 0.4 µM | 0.54 ± 0.01
COc1ccc(CCC(=O)c2c(O)cc(O[C@@H]3O[C@H](CO)[C@@H](O)[C@H](O)[C@H]3O[C@@H]3O[C@@H](C)[C@H](O)[C@@H](O)[C@H]3O)cc2O)cc1O [NHDC, neohesperidin dihydrochalcone] | – | > 1000 µM | –
B1 | – | 33.5 µM | –
